Experimental data reported in article PMC10786919, “Design-rules for stapled peptides with in vivo activity and their application to Mdm2/X antagonists” (Nature Communications, 2024).
In brackets after ≈: the same amount, converted by molar mass. Like-named read-outs stand apart in the source and are kept apart here. Positions of bridges follow the written chain, without caps; N, C: chain ends. Non-standard residues stand in square brackets, D forms with d. Residues, ends and D or L forms follow the SMILES beside them. Phe(3-CF3) = N[C@@H](Cc1cccc(C(F)(F)F)c1)C(=O)O; Lys(N3) = [N-]=[N+]=NCCCC[C@H](N)C(=O)O; R8 = C=CCCCCCC[C@@](C)(N)C(=O)O; Cba = N[C@@H](CC1CCC1)C(=O)O; S5 = C=CCCC[C@](C)(N)C(=O)O; βAla = NCCC(=O)O

What was measured:
[1] = Solubility assay (kinetic solubility, PBS pH 7); format: physicochemical; settings: pH 7, PBS; for solubility kinetic: pH 7, aqueous buffer, kinetic from dmso stock, read-out: Solubility
Procedure, shortened: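 Quantitation uses an external standard at 100 µM, prepared from 10 mM stock in acetonitrile:methanol:DMSO (10:80:10). Solubility (µM) = (peak area of sample ÷ peak area of standard) × standard concentration.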

HCT116 cells = assay: Lactate dehydrogenase (LDH) release assay; format: cell-based
Procedure, shortened: (§1)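 Membrane damage measured as lactate dehydrogenase release (CytoTox-ONE kit) from p53-responsive β-lactamase reporter HCT116 cells plated at 8000 per well. Final DMSO 0.5%; geometric mean reported from a minimum of three biological replicates.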

[2] = Lactate dehydrogenase (LDH) release assay; format: cell-based
Procedure, shortened: as §1

in vitro = assay: in vitro
Procedure, shortened: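 Azido-peptide permeability was read as loss of NanoBRET signal (donor 450 nm, acceptor 610 nm) after adding NanoBret618-azide at 10 μM final.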

[3] = Experimental LogD (partition coefficient); settings: for logD: Partition Coeff LogD
[4] = Nanoclick permeability assay EC50
[5] = 0% FBS 4Hr, read-out: LDH: Cytotoxicity assay: EC50
[6] = 10% FBS 4Hr, read-out: LDH: Cytotoxicity assay: EC50

| SMILES | Solubility [1] | EPSA (physchem) | LDH: Cytotoxicity assay: % Effect (HCT116 cells) | EC50 ([2]; LDH: Cytotoxicity assay: EC50) | cell entry EC50 (in vitro; [4]) | logD ([3]; not stated) | solubility kinetic [1] | Partition Coeff LogD [3] | LDH: Cytotoxicity assay: % Effect (HCT116 cells; 0% FBS 4Hr) | LDH: Cytotoxicity assay: % Effect (HCT116 cells; 0% FBS 16Hr) | EC50 [2, 5] | EC50 ([2]; 0% FBS 16Hr, read-out: LDH: Cytotoxicity assay: EC50) | cell entry EC50 (in vitro) | LDH: Cytotoxicity assay: % Effect (HCT116 cells; 10% FBS 4Hr) | EC50 [2, 6] | logD ([3]; experimental) |
| --- | --- | --- | --- | --- | --- | --- | --- | --- | --- | --- | --- | --- | --- | --- | --- | --- |
| CC(C)C[C@H](NC(=O)CCNC(=O)[C@@H](N)CCCCN=[N+]=[N-])C(=O)N[C@H](C(=O)N[C@@H](Cc1ccccc1)C(=O)N[C@]1(C)CCCCCCC=CCCC[C@@](C)(C(N)=O)NC(=O)[C@H](CC(C)C)NC(=O)[C@H](CC(C)C)NC(=O)[C@H](C)NC(=O)[C@H](Cc2c[nH]c3ccccc23)NC(=O)[C@H](Cc2ccc(O)cc2)NC(=O)[C@H](CCC(=O)O)NC1=O)[C@@H](C)O [MP-0176] (H-[Lys(N3)][βAla]LTF[R8]EYWALL[S5]-NH2; staple 6-13) | Poorly Behaved | 212 A^2 | 6.97% | > 50.6 µM | 0.217 µM | 2.85 | – | – | – | – | – | – | – | – | – | – |
| CC(=O)N[C@@H](CCCCN=[N+]=[N-])C(=O)NCCC(=O)N[C@@H](CC(C)C)C(=O)N[C@H](C(=O)N[C@@H](Cc1ccccc1)C(=O)N[C@]1(C)CCCCCCC=CCCC[C@@](C)(C(=O)N[C@@H](CO)C(=O)N[C@@H](C)C(=O)N[C@@H](C)C(N)=O)NC(=O)[C@H](CC2CCC2)NC(=O)[C@H](CCC(N)=O)NC(=O)[C@H](C)NC(=O)[C@H](Cc2c[nH]c3ccccc23)NC(=O)[C@H](Cc2ccccc2)NC(=O)[C@H](CCC(=O)O)NC1=O)[C@@H](C)O [MP-028] (Ac-[Lys(N3)][βAla]LTF[R8]EFWAQ[Cba][S5]SAA-NH2; staple 6-13) | – | 197 A^2 | 33.41% | 8.43 µM | 0.0464 µM | 3.2 | 6 µM (≈ 11.7 µg/mL) | – | – | – | – | – | – | – | – | – |
| CC(=O)N[C@@H](CCCCN=[N+]=[N-])C(=O)NCCC(=O)N[C@@H](CC(C)C)C(=O)N[C@H](C(=O)N[C@@H](Cc1ccccc1)C(=O)N[C@]1(C)CCCCCCC=CCCC[C@@](C)(C(=O)N[C@@H](CO)C(=O)N[C@@H](C)C(=O)N[C@@H](C)C(N)=O)NC(=O)[C@H](CC2CCC2)NC(=O)[C@H](CCC(N)=O)NC(=O)[C@H](C)NC(=O)[C@H](Cc2cccc(C(F)(F)F)c2)NC(=O)[C@H](Cc2ccc(O)cc2)NC(=O)[C@H](CCC(=O)O)NC1=O)[C@@H](C)O [MP-030] (Ac-[Lys(N3)][βAla]LTF[R8]EY[Phe(3-CF3)]AQ[Cba][S5]SAA-NH2; staple 6-13) | Poorly Behaved | 192 A^2 | 8.06% | > 50.6 µM | 0.408 µM | – | – | Poorly Behaved | – | – | – | – | – | – | – | – |
| CC(=O)N[C@@H](CCCCN=[N+]=[N-])C(=O)NCCC(=O)N[C@@H](CC(C)C)C(=O)N[C@H](C(=O)N[C@@H](Cc1ccccc1)C(=O)N[C@]1(C)CCCCCCC=CCCC[C@@](C)(C(=O)N2CCC[C@H]2C(=O)N[C@@H](C)C(=O)N[C@@H](C)C(N)=O)NC(=O)[C@H](CC2CCC2)NC(=O)[C@H](CCC(N)=O)NC(=O)[C@H](C)NC(=O)[C@H](Cc2c[nH]c3ccccc23)NC(=O)[C@H](Cc2ccc(O)cc2)NC(=O)[C@H](CCC(=O)O)NC1=O)[C@@H](C)O [MP-184] (Ac-[Lys(N3)][βAla]LTF[R8]EYWAQ[Cba][S5]PAA-NH2; staple 6-13) | Poorly Behaved | 201 A^2 | 10.48% | > 50.6 µM | 0.36 µM | – | – | Poorly Behaved | – | – | – | – | – | – | – | – |
| CC(=O)N[C@@H](CCCCN=[N+]=[N-])C(=O)NCCC(=O)N[C@@H](CC(C)C)C(=O)N[C@H](C(=O)N[C@@H](Cc1ccccc1)C(=O)N[C@]1(C)CCCCCCC=CCCC[C@@](C)(C(=O)N[C@@H](CO)C(=O)N[C@@H](C)C(=O)N[C@@H](C)C(N)=O)NC(=O)[C@H](C)NC(=O)[C@H](CCC(N)=O)NC(=O)[C@H](C)NC(=O)[C@H](Cc2c[nH]c3ccccc23)NC(=O)[C@H](Cc2ccc(O)cc2)NC(=O)[C@H](CCC(=O)O)NC1=O)[C@@H](C)O [MP-894, AZIDE-ATSP-7041 (CBA10 TO A)] (Ac-[Lys(N3)][βAla]LTF[R8]EYWAQA[S5]SAA-NH2; staple 6-13) | – | 198 A^2 | – | – | – | 2.59 | 93 µM (≈ 178 µg/mL) | – | 3.381% | 18.53% | > 50 µM | > 50 µM | 1.33 µM | – | – | – |
| CC(C)C[C@@H]1NC(=O)[C@H](C)NC(=O)[C@H](Cc2c[nH]c3ccccc23)NC(=O)[C@H](Cc2ccc(O)cc2)NC(=O)[C@H](CCC(=O)O)NC(=O)[C@](C)(NC(=O)[C@H](Cc2ccccc2)NC(=O)[C@H](CO)NC(=O)[C@@H](NC(=O)[C@H](CO)NC(=O)CNC(=O)[C@@H](N)CCCCN=[N+]=[N-])[C@@H](C)O)CCCCCCC=CCCC[C@@](C)(C(N)=O)NC(=O)[C@H](CC(C)C)NC1=O [MP-0179] | Poorly Behaved | 230 A^2 | 3.75% | > 50.6 µM | 0.503 µM | 2.57 | – | – | – | – | – | – | – | – | – | – |
| CC(=O)N[C@@H](CCCCN=[N+]=[N-])C(=O)NCCC(=O)N[C@@H](CC(C)C)C(=O)N[C@H](C(=O)N[C@@H](Cc1ccccc1)C(=O)N[C@]1(C)CCCCCCC=CCCC[C@@](C)(C(=O)N[C@@H](CO)C(=O)N[C@@H](C)C(=O)N[C@@H](C)C(N)=O)NC(=O)[C@H](CC2CCC2)NC(=O)[C@H](CCC(N)=O)NC(=O)[C@H](CC(C)C)NC(=O)[C@H](Cc2c[nH]c3ccccc23)NC(=O)[C@H](Cc2ccc(O)cc2)NC(=O)[C@H](CC(C)C)NC1=O)[C@@H](C)O [MP-693, AZIDE-ATSP-7041 (E5L, A8L)] (Ac-[Lys(N3)][βAla]LTF[R8]LYWLQ[Cba][S5]SAA-NH2; staple 6-13) | – | 196 A^2 | – | – | – | 4.68 | < 1 µM | – | -2.781% | – | > 50.6 µM | – | 0.29 µM | 12.6% | > 50 µM | 2.92 |
| CC(=O)N[C@@H](CCCCN=[N+]=[N-])C(=O)NCCC(=O)N[C@@H](C)C(=O)N[C@H](C(=O)N[C@@H](Cc1ccccc1)C(=O)N[C@]1(C)CCCCCCC=CCCC[C@@](C)(C(=O)N[C@@H](CO)C(=O)N[C@@H](C)C(=O)N[C@@H](C)C(N)=O)NC(=O)[C@H](CC2CCC2)NC(=O)[C@H](C)NC(=O)[C@H](C)NC(=O)[C@H](Cc2c[nH]c3ccccc23)NC(=O)[C@H](Cc2ccc(O)cc2)NC(=O)[C@H](C)NC1=O)[C@@H](C)O [MP-209, AZIDE-ATSP-7041 (L1A, E5A, Q9A)] (Ac-[Lys(N3)][βAla]ATF[R8]AYWAA[Cba][S5]SAA-NH2; staple 6-13) | – | 197 A^2 | – | – | – | 3.32 | 2 µM (≈ 3.63 µg/mL) | – | -1.35% | – | > 50.6 µM | – | 0.906 µM | 7.572% | > 50 µM | – |
| CC(=O)N[C@@H](CCCCN=[N+]=[N-])C(=O)NCCC(=O)NCC(=O)N[C@H](C(=O)N[C@@H](Cc1ccccc1)C(=O)N[C@]1(C)CCCCCCC=CCCC[C@@](C)(C(=O)N[C@@H](CO)C(=O)N[C@@H](C)C(=O)N[C@@H](C)C(N)=O)NC(=O)[C@H](CC2CCC2)NC(=O)[C@H](CCC(N)=O)NC(=O)CNC(=O)[C@H](Cc2c[nH]c3ccccc23)NC(=O)[C@H](Cc2ccc(O)cc2)NC(=O)CNC1=O)[C@@H](C)O [MP-692] (Ac-[Lys(N3)][βAla]GTF[R8]GYWGQ[Cba][S5]SAA-NH2; staple 6-13) | – | 200 A^2 | 2.18% | > 50.6 µM | 1.39 µM | 2.73 | 2 µM (≈ 3.66 µg/mL) | – | – | – | – | – | – | – | – | – |
| CC(=O)N[C@@H](CCCCN=[N+]=[N-])C(=O)N[C@@H](CO)C(=O)NCC(=O)N[C@@H](CO)C(=O)N[C@@H](CC(C)C)C(=O)N[C@H](C(=O)N[C@@H](Cc1ccccc1)C(=O)N[C@]1(C)CCCCCCC=CCCC[C@@](C)(C(=O)N[C@@H](CO)C(=O)N[C@@H](C)C(=O)N[C@@H](C)C(N)=O)NC(=O)[C@H](CC2CCC2)NC(=O)[C@H](CCC(N)=O)NC(=O)[C@H](C)NC(=O)[C@H](Cc2c[nH]c3ccccc23)NC(=O)[C@H](Cc2ccc(O)cc2)NC(=O)[C@H](CCC(=O)O)NC1=O)[C@@H](C)O [MP-619] | – | 227 A^2 | 11.42% | > 50.6 µM | 0.63 µM | 2.67 | 110 µM (≈ 235 µg/mL) | – | – | – | – | – | – | – | – | – |
